One block for each compound: values may come before it.
Columns and labels:
[1] = test system: Amaranthus retroflexus; test: greenhouse post-emergence herbicidal test; type: in vivo; conditions: for post-emergence activity against pig weed: application rate 1.0 kg/ha
Description: (§1) The seeds of the test plants were sown separately for each species. For the post-emergence treatment, the test plants were grown to a plant height of from 3 to 15 cm, depending on the plant habit, and only then treated with the active ingredients which had been suspended or emulsified in water. To this end, the test plants were either sown directly and grown in the same containers, or they were first grown separately as seedlings and transplanted into the test containers a few days prior to treatment. […] (active substance). Depending on the species, the plants were kept at from 10 to 25° C. and 20 to 35° C., respectively. The test period extended over 2 to 4 weeks. During this time, the plants were tended, and their response to the individual treatments was evaluated. Evaluation was carried out using a scale of from 0 to 100. 100 means no emergence of the plants, or complete destruction of at least the aerial parts, and 0 means no damage or normal course of growth. The plants used in the greenhouse experiments belonged to the following species: [table]

[2] = test system: Chenopodium album; test: greenhouse post-emergence herbicidal test; type: in vivo; conditions: for post-emergence activity against lambsquarters: application rate 1.0 kg/ha
Description: as §1

[3] = test system: Setaria viridis; test: greenhouse post-emergence herbicidal test; type: in vivo; conditions: for post-emergence activity against green foxtail: application rate 1.0 kg/ha
Description: as §1

[4] = test system: Echinocloa crus-galli; test: greenhouse post-emergence herbicidal test; type: in vivo; conditions: application rate 1.0 kg/ha
Description: as §1

[5] = test system: Galium aparine; test: greenhouse post-emergence herbicidal test; type: in vivo; conditions: application rate 1.0 kg/ha
Description: as §1

[6] = test system: Polygonum convolvulus; test: greenhouse post-emergence herbicidal test; type: in vivo; conditions: application rate 1.0 kg/ha
Description: as §1

SMILES: CNC(=O)C(NC(=O)c1cn(C)nc1C(F)(F)F)C(C)c1ccccc1C (mixture of isomers) [Compound 4.6]
- post-emergence activity against pig weed [1]: very good
- post-emergence activity against lambsquarters [2]: very good
- post-emergence activity against green foxtail [3]: very good

- melting point: 216 °C
SMILES: CNC(=O)C(NC(=O)c1cn(C)nc1C(F)(F)F)C(O)c1ccccc1 (racemic) [Compound 4.9, N-(2-Hydroxy-1-methylcarbamoyl-2-phenylethyl)-1-methyl-3-trifluoromethyl-1H-pyrazole-4-carboxamide]

SMILES: CCC(CC)C(=O)OC(c1ccccc1)C(NC(=O)c1cn(C)nc1C(F)(F)F)C(=O)NC (racemic) [Compound 4.14]
- post-emergence activity against pig weed [1]: very good
- post-emergence activity against lambsquarters [2]: very good
- post-emergence activity against green foxtail [3]: very good

- melting point: 158 °C
SMILES: CNC(=O)C(NC(=O)c1cn(C)nc1C(F)(F)F)C(OC(=O)C(C)(C)C)c1ccccc1 (racemic) [Compound 4.15, 2-Methylcarbamoyl-2-[(1-methyl-3-trifluoromethyl-1H-pyrazole-4-carbonyl)amino]-1-phenylethyl 2,2-dimethylpropionate]

SMILES: CNC(=O)C(NC(=O)c1cn(C)nc1C(F)(F)F)C(OS(C)(=O)=O)c1ccccc1 (racemic) [Compound 4.22]
- post-emergence action on pig weed ([1]; application rate 0.5 kg/ha): very good
- post-emergence action on lambsquarters ([2]; application rate 0.5 kg/ha): very good
- post-emergence action on green foxtail ([3]; application rate 0.5 kg/ha): very good

SMILES: CNC(=O)C(NC(=O)c1ccsc1C(F)(F)F)C(OC(=O)COC)c1ccccc1 (racemic) [Compound 5.6]
- post-emergence activity against pig weed [1]: very good
- post-emergence activity against lambsquarters [2]: very good
- post-emergence activity against green foxtail [3]: very good

SMILES: CNC(=O)C(NC(=O)c1cscc1C(F)(F)F)C(OC(=O)N(C)C)c1ccccc1 (racemic) [Compound 5.8]
- post-emergence activity against lambsquarters [2]: very good
- post-emergence activity against cockspur [4]: very good
- post-emergence activity against cleavers harrif [5]: very good
- post-emergence activity against black bindweed [6]: very good
- post-emergence activity against green foxtail [3]: very good

SMILES: CNC(=O)C(NC(=O)c1cc(C)oc1C(F)(F)F)C(O)c1ccccc1 (racemic) [Compound 5.14]
- post-emergence activity against lambsquarters [2]: very good
- post-emergence activity against cockspur [4]: very good
- post-emergence activity against cleavers harrif [5]: very good
- post-emergence activity against green foxtail [3]: very good

SMILES: CNC(=O)C(NC(=O)c1cc(C)oc1C(F)(F)F)C(OC(=O)N(C)C)c1ccccc1 (racemic) [Compound 5.16]
- post-emergence activity against lambsquarters [2]: very good
- post-emergence activity against cockspur [4]: very good
- post-emergence activity against black bindweed [6]: very good
- post-emergence activity against green foxtail [3]: very good

SMILES: CNC(=O)C(NC(=O)c1ccncc1C(F)(F)F)C(O)c1ccccc1 (racemic) [Compound 5.23]
- post-emergence activity against pig weed [1]: very good
- post-emergence activity against lambsquarters [2]: very good
- post-emergence activity against cleavers harrif [5]: very good
- post-emergence activity against green foxtail [3]: very good

— patent US20070060480A1, “Heteroaroyl-substituted phenylalanineamides” (priority 2003, published 2007)
